From PubChem BioAssay (NCI)
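1) Cells in 96-well plates. 2) Compound, 48 h, 5 concentrations. 3) Linear interpolation between surrounding doses. 4) Unreached endpoint = highest concentration. TGI: total growth inhibition.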

Legend:
Test in all cases: growth of human tumour cells (NCI), 48 h
SR leukemia = tested on: SR leukemia
SK-MEL-5 melanoma = tested on: SK-MEL-5 melanoma
NCI/ADR-RES ovarian = tested on: NCI/ADR-RES ovarian
SK-MEL-28 melanoma = tested on: SK-MEL-28 melanoma
OVCAR-8 ovarian = tested on: OVCAR-8 ovarian
MDA-MB-231 breast = tested on: MDA-MB-231 breast
CAKI-1 renal = tested on: CAKI-1 renal
TK-10 renal = tested on: TK-10 renal
MDA-MB-435 = tested on: MDA-MB-435
SNB-19 CNS = tested on: SNB-19 CNS

Structure (SMILES): O=c1c2[nH]cnc2n(-c2ccccc2)c(=S)n1-c1ccccc1
- TGI (SR leukemia): > 100 µM
- TGI (SK-MEL-5 melanoma): > 100 µM
- TGI (NCI/ADR-RES ovarian): > 100 µM
- TGI (SK-MEL-28 melanoma): > 100 µM
- TGI (OVCAR-8 ovarian): > 100 µM
- TGI (MDA-MB-231 breast): > 100 µM
- TGI (CAKI-1 renal): > 100 µM
- TGI (TK-10 renal): > 100 µM
- TGI (MDA-MB-435): > 100 µM

Structure (SMILES): C=CCOC(C)(C)C1=CCC(C)CC1 (stereo not drawn)
- TGI (SK-MEL-5 melanoma): > 100 µM
- TGI (SK-MEL-28 melanoma): > 100 µM
- TGI (OVCAR-8 ovarian): > 100 µM
- TGI (SNB-19 CNS): > 100 µM
- TGI (CAKI-1 renal): > 100 µM
- TGI (TK-10 renal): > 100 µM
- TGI (MDA-MB-435): > 100 µM

Structure (SMILES): [C-]#[O+].[Cl][Sn]([Cl])[Cl].[Cl][Sn]([Cl])[Cl].[Pt].c1cnc2c(c1)ccc1cccnc12
- TGI (SK-MEL-5 melanoma): 13.4 µM
- TGI (NCI/ADR-RES ovarian): 10.1 µM
- TGI (SK-MEL-28 melanoma): 46.9 µM
- TGI (OVCAR-8 ovarian): > 100 µM
- TGI (SNB-19 CNS): > 27.1 µM
- TGI (CAKI-1 renal): > 100 µM

Structure (SMILES): Cc1ccc(S(=O)(=O)OCCN(CCOS(=O)(=O)c2ccc(C)cc2)c2ccc(C=O)cc2)cc1
- TGI (SK-MEL-5 melanoma): > 100 µM
- TGI (NCI/ADR-RES ovarian): > 100 µM
- TGI (SK-MEL-28 melanoma): 81.3 µM
- TGI (OVCAR-8 ovarian): > 100 µM
- TGI (MDA-MB-231 breast): > 100 µM
- TGI (SNB-19 CNS): > 100 µM
- TGI (CAKI-1 renal): 48.8 µM
- TGI (TK-10 renal): > 100 µM
- TGI (MDA-MB-435): 44.4 µM

Structure (SMILES): O=C(/C=C\c1ccccc1)Oc1ccc(/C=C2\CCC/C(=C\c3ccc(OC(=O)/C=C\c4ccccc4)cc3)C2=O)cc1
- TGI (SR leukemia): > 100 µM
- TGI (SK-MEL-5 melanoma): > 100 µM
- TGI (NCI/ADR-RES ovarian): > 100 µM
- TGI (SK-MEL-28 melanoma): > 100 µM
- TGI (OVCAR-8 ovarian): > 100 µM
- TGI (MDA-MB-231 breast): > 100 µM
- TGI (SNB-19 CNS): > 100 µM
- TGI (CAKI-1 renal): > 100 µM
- TGI (TK-10 renal): > 100 µM
- TGI (MDA-MB-435): > 100 µM

Structure (SMILES): COc1cc(C2c3cc4c(cc3[C@@H](Nc3ccc(F)cc3)C3COC[C@H]23)OCO4)cc(OC)c1O (stereo partly drawn)
- TGI (SR leukemia): 5.5 µM
- TGI (SK-MEL-5 melanoma): > 25 µM
- TGI (NCI/ADR-RES ovarian): > 25 µM
- TGI (SK-MEL-28 melanoma): > 25 µM
- TGI (OVCAR-8 ovarian): > 25 µM
- TGI (MDA-MB-231 breast): 15.1 µM
- TGI (SNB-19 CNS): 16.2 µM
- TGI (TK-10 renal): > 25 µM
- TGI (MDA-MB-435): > 25 µM

Structure (SMILES): Cc1cccc2c1nc1n2C(=O)c2ccccc2-1
- TGI (SR leukemia): > 100 µM
- TGI (SK-MEL-5 melanoma): > 100 µM
- TGI (NCI/ADR-RES ovarian): > 100 µM
- TGI (SK-MEL-28 melanoma): > 100 µM
- TGI (OVCAR-8 ovarian): > 100 µM
- TGI (SNB-19 CNS): > 100 µM
- TGI (CAKI-1 renal): > 100 µM
- TGI (TK-10 renal): > 100 µM

Structure (SMILES): COc1cc(C=O)cc(C=Nc2ccc(Br)cc2)c1O
- TGI (SR leukemia): 40.8 µM
- TGI (SK-MEL-5 melanoma): 21.1 µM
- TGI (NCI/ADR-RES ovarian): > 100 µM
- TGI (SK-MEL-28 melanoma): > 100 µM
- TGI (OVCAR-8 ovarian): > 100 µM
- TGI (MDA-MB-231 breast): 37.8 µM
- TGI (SNB-19 CNS): > 100 µM
- TGI (CAKI-1 renal): 42 µM
- TGI (TK-10 renal): > 100 µM
- TGI (MDA-MB-435): 32.5 µM

Structure (SMILES): CC(C)Oc1cccc(N2C(CCc3c[nH]c4ccc(Br)cc34)=NS(=O)(=O)c3cnccc32)c1
- TGI (SR leukemia): > 100 µM
- TGI (SK-MEL-5 melanoma): > 100 µM
- TGI (NCI/ADR-RES ovarian): > 100 µM
- TGI (SK-MEL-28 melanoma): > 100 µM
- TGI (OVCAR-8 ovarian): > 100 µM
- TGI (MDA-MB-231 breast): > 100 µM
- TGI (SNB-19 CNS): > 100 µM
- TGI (CAKI-1 renal): > 100 µM
- TGI (TK-10 renal): > 100 µM
- TGI (MDA-MB-435): > 100 µM

Structure (SMILES): O=c1c2ccc(Cl)cc2oc2c(CSc3ccccc3)cccc12
- TGI (SR leukemia): > 100 µM
- TGI (SK-MEL-5 melanoma): > 92.1 µM
- TGI (NCI/ADR-RES ovarian): > 100 µM
- TGI (SK-MEL-28 melanoma): > 100 µM
- TGI (OVCAR-8 ovarian): > 100 µM
- TGI (MDA-MB-231 breast): > 100 µM
- TGI (SNB-19 CNS): > 86.5 µM
- TGI (CAKI-1 renal): > 79.7 µM
- TGI (TK-10 renal): > 100 µM
- TGI (MDA-MB-435): > 68.3 µM

Structure (SMILES): COC(=O)c1c(O)ccc2c1c1c(n2Cc2ccc(OC)cc2)C(=O)c2ccccc2C1
- TGI (SR leukemia): > 100 µM
- TGI (SK-MEL-5 melanoma): > 100 µM
- TGI (NCI/ADR-RES ovarian): > 100 µM
- TGI (SK-MEL-28 melanoma): > 100 µM
- TGI (OVCAR-8 ovarian): > 100 µM
- TGI (MDA-MB-231 breast): > 100 µM
- TGI (SNB-19 CNS): > 100 µM
- TGI (CAKI-1 renal): 74.1 µM
- TGI (TK-10 renal): > 100 µM
- TGI (MDA-MB-435): > 100 µM
